From patent publication US20250290915A1, “METHOD FOR PREDICTING RESPONSIVENESS TO THERAPY” (CANCERTAIN LIMITED, priority 2022, published 2025)

Test system: Circulating Tumour Cells (CTCs) from a patient with sex cord stromal tumour, ovarian tumour
Assay: Drug response score assay on CTCs from blood, Example 4
Assay type: cell-based, human
Design: key to Drug response score, conc. 1 / Drug response score, conc. 2 / Drug response score, conc. 3 / Drug response score, conc. 4: normalized drug response metric (Gupta et al. 2020)
Conditions: for Drug response score, conc. 1: conc. 1: Cyclo 2.5 μg/ml, Vinc 10 ng/ml, Etop 1 μg/ml, Bini 100 ng/ml, Doxo 10 ng/ml; for Drug response score, conc. 1 / Drug response score, conc. 2 / Drug response score, conc. 3 / Drug response score, conc. 4: CTCs, t96h; for Drug response score, conc. 2: conc. 2: Cyclo 10 μg/ml, Vinc 20 ng/ml, Etop 4 μg/ml, Bini 200 ng/ml, Doxo 30 ng/ml; for Drug response score, conc. 3: conc. 3: Cyclo 40 μg/ml, Vinc 40 ng/ml, Etop 20 μg/ml, Bini 400 ng/ml, Doxo 90 ng/ml; for Drug response score, conc. 4: conc. 4: Cyclo 160 μg/ml, Vinc 80 ng/ml, Etop 100 μg/ml, Bini 800 ng/ml, Doxo 270 ng/ml; for effectiveness on Circulating Tumour Cells (CTCs) under laboratory conditions / Drug sensitivity as calculated by the assay (interpretation of Drug Response Scores): sex cord stromal / ovarian tumour CTCs; for Drug sensitivity as calculated by the assay (interpretation of Drug Response Scores): Table 14
Description: CD45^+ cells and circulating tumour cells (CTCs) were isolated from a blood sample provided by each subject.
CD45 separation was performed by adding human CD45 microbeads (50 μl/ml blood), incubating for 15 minutes at 4° C. and then processing using an AutoMACS machine. This separates the blood sample into CD45^+ and CD45^−cells in 2 separate falcons. The falcon tubes are then centrifuged at 1200 rpm for 5 minutes.
The supernatant was removed from the CD45^−falcon tube, and the CD45^−cells contacted with 100 μl of FcR block and 100 μl of CD326 (EpCAM) MicroBeads, followed by incubation at […] 4° C. for 30 minutes. The CD45^−cells were then processed using an AutoMACS machine to separate the EpCAM positive and negative cells into 2 separate falcon tubes. The EpCAM-cells were discarded. The supernatant was removed from the EpCAM^+ cells, and the cells resuspended in DMEM with 2 μl Cell Tox, 2 μl MT and 2 μl MT. 20 μl of the resuspended pellet was then added to all sample wells excluding a blank. After all wells are added to, a cell count was conducted on the […] to determine the number of circulating tumour cells (CTCs).
The different cell types were each divided equally into populations, depending on the number of drugs/concentrations to be tested and plated on a cell-culture plate pre-coated with a scaffold of polycaprolactone (PCL) electrospun fibres and incubated at 37° C., 5% CO2, for 5 to (typically 10) minutes to facilitate cell attachment. After attachment, an initial imaging step was carried out using the RealTime-Glo™ MT assay from Promega (Catalogue No. G9711)) and the CellTox™ Green Cytotoxicity Assay (Promega, Catalogue No. G8741), carried out according to manufacturer's instructions. Following this initial imagining, the immunotherapeutic and/or chemotherapeutic agents were added to the cell populations as indicated below. After 10 minutes, the imagining step was repeated. The cell populations were then incubated at 37° C., 5% CO2 for 48 hours. The imaging step was then repeated. The cell populations were then re-dosed with the same immunotherapeutic and/or chemotherapeutic agents as indicated below, and incubated at 37° C., 5% CO2 for a further 48 hours. After this second 48 hour incubation, the imagining step was repeated for a final time.
At the end of this culture period, dose response scores were calculated using a normalized drug response metric as described in Gupta et al. (Communications Biology volume 3, Article number: 42 (2020), https://doi.org/10.1038/s42003-020-0765-z). The start readout for a given immunotherapeutic or chemotherapeutic agent at a given concentration was the to readout for said immunotherapeutic or chemotherapeutic agent at a specified concentration. The end readout for a given immunotherapeutic or chemotherapeutic agent at a given concentration was the final timepoint reading (t96h) for said immunotherapeutic or chemotherapeutic agent at a specified concentration.
The positive control start readout for a given drug/concentration was the to readout for the corresponding drug at a specified concentration. The positive control end readout for the corresponding drug at a specified concentration was the final timepoint reading (t96h) for the corresponding blank well.
The negative control start and end readouts for a given immunotherapeutic or chemotherapeutic agent at a given concentration were the to and final timepoint reading (t96h) respectively for blank cell or blank immuno cell well respectively.
The sensitivity or resistance of a subject's cancer to a given immunotherapeutic or chemotherapeutic agent was determined based on the calculated drug response score as shown in Table 2.
Blood samples from a patient with sex cord stromal tumour, ovarian tumour (epitheliod neoplasm, stage 3 recurrence after surgery (resection) and previous chemotherapy) were received on 19 Jul. 2021 and tested using a 5 drug panel. […]

SMILES | Drug response score, conc. 1 | Drug response score, conc. 2 | Drug response score, conc. 3 | Drug response score, conc. 4 | effectiveness on Circulating Tumour Cells (CTCs) under laboratory conditions | Drug sensitivity as calculated by the assay (interpretation of Drug Response Scores)
COc1cccc2c1C(=O)c1c(O)c3c(c(O)c1C2=O)C[C@@](O)(C(=O)CO)C[C@@H]3O[C@H]1C[C@H](N)[C@H](O)[C@H](C)O1 [Doxorubicin] | 0.68 | 0.93 | 0.54 | 0.93 | show effectiveness | Sensitive (S++)
COc1cc([C@@H]2c3cc4c(cc3[C@@H](O[C@@H]3O[C@@H]5CO[C@@H](C)O[C@H]5[C@H](O)[C@H]3O)[C@H]3COC(=O)[C@H]23)OCO4)cc(OC)c1O [Etoposide] | 0.79 | 1.06 | 1.19 | 1.35 | not effective | Resistant
